Target: T1, EGFR (Homo sapiens, UniProt P00533)
T1 construct: endogenous in cells; host or cells: A431 cells (lysate, captured with SUMO1 anti-EGFR antibody)
Assay: Biochemical EGFR Assay
Parameters: concentration or dose not given beside the values
How it was run: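 Readout is ABTS absorbance at 410 nm after anti-phosphotyrosine and HRP-antibody detection of EGFR autophosphorylation. The kinase was immunocaptured from A431 lysate, exposed 30 min to test compound diluted 1:10 in TBS, then phosphorylated for 5 min with ATP/MnCl2 before an EDTA stop.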

T1 sequence (P00533 25-1210): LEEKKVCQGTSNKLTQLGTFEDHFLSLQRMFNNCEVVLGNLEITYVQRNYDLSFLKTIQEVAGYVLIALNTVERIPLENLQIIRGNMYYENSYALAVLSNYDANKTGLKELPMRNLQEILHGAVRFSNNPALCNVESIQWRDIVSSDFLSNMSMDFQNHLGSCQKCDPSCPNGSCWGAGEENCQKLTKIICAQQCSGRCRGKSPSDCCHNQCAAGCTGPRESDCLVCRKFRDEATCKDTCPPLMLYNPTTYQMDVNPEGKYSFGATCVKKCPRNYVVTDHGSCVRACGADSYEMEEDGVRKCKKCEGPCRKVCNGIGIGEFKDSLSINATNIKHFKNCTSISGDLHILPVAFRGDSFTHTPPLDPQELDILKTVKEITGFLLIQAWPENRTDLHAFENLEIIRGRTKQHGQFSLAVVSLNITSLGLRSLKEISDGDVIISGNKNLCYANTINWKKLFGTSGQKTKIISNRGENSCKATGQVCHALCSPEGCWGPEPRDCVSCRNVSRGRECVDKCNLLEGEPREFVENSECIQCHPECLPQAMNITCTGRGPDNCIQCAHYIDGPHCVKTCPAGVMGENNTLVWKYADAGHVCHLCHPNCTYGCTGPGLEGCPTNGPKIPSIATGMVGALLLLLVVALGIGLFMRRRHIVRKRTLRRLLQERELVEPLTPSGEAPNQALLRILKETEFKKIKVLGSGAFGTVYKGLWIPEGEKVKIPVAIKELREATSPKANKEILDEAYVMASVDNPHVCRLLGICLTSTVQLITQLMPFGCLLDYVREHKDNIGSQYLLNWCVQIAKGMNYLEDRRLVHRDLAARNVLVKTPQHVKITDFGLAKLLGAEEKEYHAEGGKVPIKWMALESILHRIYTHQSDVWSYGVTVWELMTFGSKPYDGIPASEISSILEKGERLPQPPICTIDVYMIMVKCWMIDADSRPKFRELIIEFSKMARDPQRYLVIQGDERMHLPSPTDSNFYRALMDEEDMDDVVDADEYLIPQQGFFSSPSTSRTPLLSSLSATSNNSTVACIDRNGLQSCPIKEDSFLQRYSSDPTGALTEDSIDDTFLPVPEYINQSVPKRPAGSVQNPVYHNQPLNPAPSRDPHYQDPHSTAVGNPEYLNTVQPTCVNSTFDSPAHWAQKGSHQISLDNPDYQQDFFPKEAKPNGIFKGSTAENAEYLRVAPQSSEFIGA

Compound	Biochem EGFR % Inhibition (P.167) [%]
Cc1c(Br)cc(Br)c2c1C(=Cc1ccc(O)cc1)C(=O)N2 [10719/H07]	−2.8
Cc1c(Br)cc(Br)c2c1C(=Cc1ccc(N(C)C)cc1)C(=O)N2 [10719/H08]	2.9
Cc1c(Br)cc(Br)c2c1C(=Cc1ccc(F)cc1Cl)C(=O)N2 [10719/H09]	−33.5
Cc1c(Br)cc(Br)c2c1C(=Cc1cccc([N+](=O)[O-])c1)C(=O)N2 [10719/H10]	14.6
Cc1c(Br)cc(Br)c2c1C(=Cc1ccc(F)cc1C(F)(F)F)C(=O)N2 [10719/H11]	−12.0
Cc1c(Br)cc(Br)c2c1C(=Cc1c(F)cc(F)cc1F)C(=O)N2 [10720/H02]	17.0
COc1cc(O)ccc1C=C1C(=O)Nc2c(Br)cc(Br)c(C)c21 [10720/H03]	−13.9
N#Cc1ccccc1C=C1C(=O)Nc2ccc(CCCl)cc21 [10735/G07]	4.6
O=C1Nc2ccc(CCCl)cc2C1=Cc1c(F)cccc1F [10735/G08]	1.6
O=C1Nc2ccc(CCCl)cc2C1=Cc1cccc2ccccc12 [10735/G09]	19.8
O=C1Nc2ccc(CCCl)cc2C1=Cc1ccc(Cl)cc1Cl [10735/G10]	4.5
O=C1Nc2ccc(CCCl)cc2C1=Cc1ccc(-c2ccccc2)cc1 [10735/G11]	2.9
Cc1ccccc1C=C1C(=O)Nc2c(Br)cc(Br)c(C)c21 [10735/H02]	3.6
Cc1c(Br)cc(Br)c2c1C(=Cc1ccc(F)c(F)c1)C(=O)N2 [10735/H03]	−1.0
Cc1c(Br)cc(Br)c2c1C(=Cc1cc(F)cc(F)c1)C(=O)N2 [10735/H04]	−9.3
Cc1c(Br)cc(Br)c2c1C(=Cc1cccc(C(F)(F)F)c1)C(=O)N2 [10735/H05]	−0.3
Cc1c(Br)cc(Br)c2c1C(=Cc1cc(C(F)(F)F)cc(C(F)(F)F)c1)C(=O)N2 [10735/H06]	−14.2
Cc1c(Br)cc(Br)c2c1C(=Cc1ccccc1C#N)C(=O)N2 [10735/H07]	3.8
Cc1c(Br)cc(Br)c2c1C(=Cc1c(F)cccc1F)C(=O)N2 [10735/H08]	6.8
Cc1c(Br)cc(Br)c2c1C(=Cc1cccc3ccccc13)C(=O)N2 [10735/H09]	−10.7
Cc1c(Br)cc(Br)c2c1C(=Cc1ccc(Cl)cc1Cl)C(=O)N2 [10735/H10]	−16.3
Cc1c(Br)cc(Br)c2c1C(=Cc1ccc(-c3ccccc3)cc1)C(=O)N2 [10735/H11]	−4.2
O=C1Nc2c(Br)cc(Br)cc2C1=Cc1ccc(Cl)cc1 [10736/A02]	7.7
O=C1Nc2c(Br)cc(Br)cc2C1=Cc1ccccc1C(F)(F)F [10736/A03]	24.2
Cc1cccc(C=C2C(=O)Nc3c(Br)cc(Br)cc32)c1 [10736/A04]	14.1
Cc1ccc(C=C2C(=O)Nc3c(Br)cc(Br)cc32)cc1 [10736/A05]	80.1
O=C1Nc2c(Br)cc(Br)cc2C1=Cc1cccc(Cl)c1 [10736/A06]	34.4

Compound	Biochem EGFR % Inhibition (P.167) [%]
O=C1Nc2c(Br)cc(Br)cc2C1=Cc1cccc(F)c1 [10736/A07]	30.2
O=C1Nc2c(Br)cc(Br)cc2C1=Cc1ccccc1F [10736/A08]	27.6
CCc1ccc(C=C2C(=O)Nc3c(Br)cc(Br)cc32)cc1 [10736/A09]	20.0
COc1cccc(C=C2C(=O)Nc3c(Br)cc(Br)cc32)c1 [10736/A10]	−0.1
O=C1Nc2c(Br)cc(Br)cc2C1=Cc1ccccc1Cl [10736/A11]	−29.3
O=C1Nc2ccc(I)cc2C1=Cc1ccc(Cl)cc1 [10736/B02]	−38.8
O=C1Nc2ccc(I)cc2C1=Cc1ccccc1C(F)(F)F [10736/B03]	−51.7
Cc1cccc(C=C2C(=O)Nc3ccc(I)cc32)c1 [10736/B04]	−9.0
Cc1ccc(C=C2C(=O)Nc3ccc(I)cc32)cc1 [10736/B05]	14.9
O=C1Nc2ccc(I)cc2C1=Cc1cccc(Cl)c1 [10736/B06]	12.6
O=C1Nc2ccc(I)cc2C1=Cc1cccc(F)c1 [10736/B07]	8.4
O=C1Nc2ccc(I)cc2C1=Cc1ccccc1F [10736/B08]	8.4
CCc1ccc(C=C2C(=O)Nc3ccc(I)cc32)cc1 [10736/B09]	−3.5
COc1cccc(C=C2C(=O)Nc3ccc(I)cc32)c1 [10736/B10]	15.6
O=C1Nc2ccc(I)cc2C1=Cc1ccccc1Cl [10736/B11]	−3.7
Cc1c(Br)ccc2c1C(=Cc1ccc(Cl)cc1)C(=O)N2 [10736/C02]	−47.1
Cc1c(Br)ccc2c1C(=Cc1ccccc1C(F)(F)F)C(=O)N2 [10736/C03]	0.3
Cc1cccc(C=C2C(=O)Nc3ccc(Br)c(C)c32)c1 [10736/C04]	90.2
Cc1ccc(C=C2C(=O)Nc3ccc(Br)c(C)c32)cc1 [10736/C05]	16.8
Cc1c(Br)ccc2c1C(=Cc1cccc(Cl)c1)C(=O)N2 [10736/C06]	4.8
Cc1c(Br)ccc2c1C(=Cc1cccc(F)c1)C(=O)N2 [10736/C07]	−8.1
Cc1c(Br)ccc2c1C(=Cc1ccccc1F)C(=O)N2 [10736/C08]	−0.5
CCc1ccc(C=C2C(=O)Nc3ccc(Br)c(C)c32)cc1 [10736/C09]	4.6
COc1cccc(C=C2C(=O)Nc3ccc(Br)c(C)c32)c1 [10736/C10]	−0.3
Cc1c(Br)ccc2c1C(=Cc1ccccc1Cl)C(=O)N2 [10736/C11]	−4.5
CNS(=O)(=O)c1ccc2c(c1)C(=Cc1ccc(Cl)cc1)C(=O)N2 [10736/D02]	1.8
CNS(=O)(=O)c1ccc2c(c1)C(=Cc1ccccc1C(F)(F)F)C(=O)N2 [10736/D03]	−3.7

Compound	Biochem EGFR % Inhibition (P.167) [%]
CNS(=O)(=O)c1ccc2c(c1)C(=Cc1cccc(C)c1)C(=O)N2 [10736/D04]	24.9
CNS(=O)(=O)c1ccc2c(c1)C(=Cc1ccc(C)cc1)C(=O)N2 [10736/D05]	−7.9
CNS(=O)(=O)c1ccc2c(c1)C(=Cc1cccc(Cl)c1)C(=O)N2 [10736/D06]	29.7
CNS(=O)(=O)c1ccc2c(c1)C(=Cc1cccc(F)c1)C(=O)N2 [10736/D07]	47.1
CNS(=O)(=O)c1ccc2c(c1)C(=Cc1ccccc1F)C(=O)N2 [10736/D08]	90.9
CCc1ccc(C=C2C(=O)Nc3ccc(S(=O)(=O)NC)cc32)cc1 [10736/D09]	66.8
CNS(=O)(=O)c1ccc2c(c1)C(=Cc1cccc(OC)c1)C(=O)N2 [10736/D10]	10.5
CNS(=O)(=O)c1ccc2c(c1)C(=Cc1ccccc1Cl)C(=O)N2 [10736/D11]	51.7
O=C1Nc2ccc(S(=O)(=O)Nc3ccc(C(F)(F)F)cc3)cc2C1=Cc1ccc(Cl)cc1 [10736/E02]	2.0
O=C1Nc2ccc(S(=O)(=O)Nc3ccc(C(F)(F)F)cc3)cc2C1=Cc1ccccc1C(F)(F)F [10736/E03]	90.2
Cc1cccc(C=C2C(=O)Nc3ccc(S(=O)(=O)Nc4ccc(C(F)(F)F)cc4)cc32)c1 [10736/E04]	−17.2
Cc1ccc(C=C2C(=O)Nc3ccc(S(=O)(=O)Nc4ccc(C(F)(F)F)cc4)cc32)cc1 [10736/E05]	17.0
O=C1Nc2ccc(S(=O)(=O)Nc3ccc(C(F)(F)F)cc3)cc2C1=Cc1cccc(Cl)c1 [10736/E06]	47.3
O=C1Nc2ccc(S(=O)(=O)Nc3ccc(C(F)(F)F)cc3)cc2C1=Cc1cccc(F)c1 [10736/E07]	−26.7
O=C1Nc2ccc(S(=O)(=O)Nc3ccc(C(F)(F)F)cc3)cc2C1=Cc1ccccc1F [10736/E08]	−47.3
CCc1ccc(C=C2C(=O)Nc3ccc(S(=O)(=O)Nc4ccc(C(F)(F)F)cc4)cc32)cc1 [10736/E09]	−40.1
COc1cccc(C=C2C(=O)Nc3ccc(S(=O)(=O)Nc4ccc(C(F)(F)F)cc4)cc32)c1 [10736/E10]	−24.0
O=C1Nc2ccc(S(=O)(=O)Nc3ccc(C(F)(F)F)cc3)cc2C1=Cc1ccccc1Cl [10736/E11]	−74.1
O=C1Nc2ccc(S(=O)(=O)N3CCOCC3)cc2C1=Cc1ccc(Cl)cc1 [10736/F02]	−4.5
O=C1Nc2ccc(S(=O)(=O)N3CCOCC3)cc2C1=Cc1ccccc1C(F)(F)F [10736/F03]	94.0
Cc1cccc(C=C2C(=O)Nc3ccc(S(=O)(=O)N4CCOCC4)cc32)c1 [10736/F04]	−21.7
Cc1ccc(C=C2C(=O)Nc3ccc(S(=O)(=O)N4CCOCC4)cc32)cc1 [10736/F05]	−6.0
O=C1Nc2ccc(S(=O)(=O)N3CCOCC3)cc2C1=Cc1cccc(Cl)c1 [10736/F06]	25.1
O=C1Nc2ccc(S(=O)(=O)N3CCOCC3)cc2C1=Cc1cccc(F)c1 [10736/F07]	−12.1
O=C1Nc2ccc(S(=O)(=O)N3CCOCC3)cc2C1=Cc1ccccc1F [10736/F08]	−2.8
CCc1ccc(C=C2C(=O)Nc3ccc(S(=O)(=O)N4CCOCC4)cc32)cc1 [10736/F09]	6.3
